Results: patent US20230398092A1, “APPLICATION OF SESQUITERPENE LACTONE COMPOUND IN PREPARATION OF DRUGS FOR ALLEVIATING RADIOTHERAPY-INDUCED INJURIES” (ACCENDATECH CO., LTD., priority 2020, published 2023)
Read-outs that look alike come from different tables or passages of the source.

What was measured:
BALB/c mice [1] = assay: Effect of ACT001 on radiation-induced neuronal apoptosis of mice (Tunel staining of whole brain); type: in vivo; details: ACT001 200 mg/kg intragastrically + brain radiation 2 Gy × 4 or single 4 Gy, day 14, Tunel staining, FIG. 7
Description: (§1) 2.3 Experimental Animal and Feeding Conditions • Adult BALB/c mice, 18-19 g, 8 weeks, female, SPF (Beijing) Biotechnology Co., Ltd., animal certificate number: SCXK (Beijing) 2019-0010. The test animals were bred in the barrier environment of the experimental animal center of the Institute of Radiation Medicine, Chinese Academy of Medical Sciences, with 5 animals in each cage. The padding was autoclaved special padding for mice, and the mice were fed with special sterilized feed, and were free to drink purified water. In the animal laboratory, the temperature was kept at about 25° C., the relative humidity was kept at 40%-70%, and the illumination was provided for 12 h daily. 3. Experimental procedures and compound treatment
3.1 Administration Method • ACT001 (dissolved in sterile normal saline) was administered intragastrically once daily; an equal volume of sterile normal saline was administered to the model control group; • The compound for each group was prepared freshly prior to use.
3.2 Experimental Grouping • (1) Model control group • (2) Radiotherapy control group (4 Gy) • (3) ACT001-200 mg/kg group • (4) ACT001-200 mg/kg+4 Gy group • (5) Radiotherapy low-dose control group (2 Gy) • (6) ACT001-200 mg/kg+2 Gy group • 10 animals in each group, 60 animals in total.
The mice were randomly grouped, with 10 mice in each group. […]

[2] = system: H226 human squamous lung carcinoma cell strain; assay: Selective radiotherapy protection effect (CCK-8), lung cancer cells; type: cell-based; details: ACT001 10 μM, 0-6 Gy, radiation 1 h after dosing, 48 h, FIG. 5
Protocol: (§2) The culture medium for H226 and BEAS2B cells was DMEM, and the cells were cultured in a cell incubator at 37° C. with 5% CO2.
(§3) Recover of H226 and BEAS2B cells: a cryopreservation tube was taken from liquid nitrogen, placed in water bath at 37° C. to thaw the cryopreservation solution, and centrifuged at 1000 rpm for 5 min.
(§4) The supernatant was discarded, and the cells were resuspended in a complete culture medium and cultured under the condition of 37° C., 5% CO2.
(§5) When 70-80% of the bottom of the culture dish was covered by the cells, the culture medium was discarded. The cells were washed with 2-3 mL of PBS buffer and digested with 1 mL of 0.25% pancreatin (just enough to cover the bottom of the flask). Immediately after the cell became round after being cultured in the incubator for a period of time, a complete culture medium was added to stop the digestion, and the cell suspensions after the digestion were combined and centrifuged at 1000 rpm for 5 min. The supernatant was discarded, and the cells were resuspended in a complete culture medium, gently pipetted, and counted. […]
(§6) Dosing was performed 24 h after the cells were seeded. […] 10 μL of CCK-8 solution (taking care not to create air bubbles in the wells, which would affect the OD readings) was added to each well, and the plate was incubated in the incubator for 1-4 h. The OD value at 450 nm was determined with a microplate reader.

[3] = system: U118-MG human brain astroblastoma cell strain; assay: Anti-proliferation activity of ACT001 at different radiation doses (CCK-8); type: cell-based; details: ACT001 20 μM; for inhibition at 20 µM: Homo sapiens, U-118-MG, U118-MG cells, read-out: Inhibition rate (%) at different radiation doses
Protocol: The culture medium for U118-MG was DMEM, and the cells were cultured in a cell incubator at 37° C. with 5% CO2.
(§7) Recover of U118-MG cells: a cryopreservation tube was taken from liquid nitrogen, placed in water bath at 37° C. to thaw the cryopreservation solution, and centrifuged at 1000 rpm for 5 min. The supernatant was discarded, and the cells were resuspended in a complete culture medium and cultured under the condition of 37° C., 5% CO2.
When 70-80% of the bottom of the culture flask was covered by the cells, the culture medium was discarded by pipetting. The cells were washed with 2-3 mL of PBS buffer and digested with 1-2 mL of 0.25% pancreatin (just enough to cover the bottom of the flask). Immediately after the cell became round after being cultured in the incubator for a period of time, a complete culture medium was added to stop the digestion, and the cell suspensions after the digestion were combined and centrifuged at 1000 rpm for 5 min. The supernatant was discarded, and the cells were resuspended in a complete culture medium, gently pipetted, and counted. The cell density was adjusted to 2500 cells/well, and the cells were seeded into a 96-well plate at 90 μL/well.
Dosing was performed one day after the cells were seeded. Each plate was divided into a blank group, a negative control group and 10 compound groups, with 4-6 duplicate wells set for each group. 10 μL of the compound was added to each well. 3 h later, each well received a corresponding radiation dose. The cells were cultured at 37° C. for 24 h. After that, the culture medium was discarded, a corresponding fresh culture medium was added, and the plate was incubated for 48 h. At the end of incubation, 10 μL of CCK-8 solution (taking care not to create air bubbles in the wells, which would affect the OD readings) was added to each well, and the plate was incubated in the incubator for 1-4 h. The OD value at 450 nm was determined with a microplate reader.
The data were processed with an EXCEL software to solve inhibition rates at different concentrations, and IC50 values were obtained by fitting with SPSS. The mean and standard deviation of the IC50 values obtained three times were solved by SPSS.
Inhibition rate %={1−(OD value of compound well−OD value of blank well)/(OD value of control well−OD value of blank well)}×100%

[4] = system: BEAS2B human normal lung epithelial cell strain; assay: Selective radiotherapy protection effect on normal cells (CCK-8), normal lung epithelial cells; type: cell-based; details: ACT001 10 μM, 0-6 Gy, radiation 1 h after dosing, 48 h, FIG. 5
Protocol: as §2, §3, §4, §5, §6

BALB/c mice [5] = assay: Effect of ACT001 on survival of mice subjected to radiotherapy; type: in vivo
Description: as §1, with “Adult” for “2.3 Experimental Animal and Feeding Conditions • Adult”, “2016-0002.” for “2019-0010.”, “common” for “barrier”, “daily.” for “daily. 3. Experimental procedures and compound treatment”
In a preliminary experiment of radiation dose exploration, mice were subjected to radiation at 8 Gy, 10 Gy, 12 Gy, and 14 Gy, respectively. All animals died 18 days after the radiation. However, the animals in the 8 Gy group survived longer than the other groups, so the radiation dose of 8 Gy was selected for the formal experiment.
3.1 Experimental Procedures • (1) The lethal dose of a single radiation of mice was determined through a preliminary experiment; (2) the mice were randomly grouped by the body weight; • (3) ACT001 was pre-administered for 17 consecutive days, and the state of the animals was observed and the body weight was measured daily; • (4) the mice in groups (3) and (4) were subjected to radiation at a lethal dose after 17 days of the administration, and on the day of radiation, ACT001 was administered 1 h before the radiation; • (5) ACT001 was continuously administered for five weeks after the radiation, and the survival state of the animals was observed and the body weight was measured daily. The survival rate and survival time of mice in each group were calculated.
3.2 Grouping Regimen • (1) Blank control group • (2) ACT001-200 mg/kg group • (3) Radiotherapy-8 Gy group • (4) ACT001-200 mg/kg+radiotherapy-8 Gy group
A total of 4 groups were set in the experiment, with 10 animals in each group.
3.3 Administration Method • ACT001 (dissolved in normal saline) was administered intragastrically once daily, with an interruption once a week; • an equal volume of normal saline was administered intragastrically to the blank control group.
Data were expressed as x±s; statistical analysis among groups was performed using the t-test program in EXCEL software, and the logrank chi-square test method was used to evaluate whether there was statistical significance in each group of dead animals.

[6] = system: SYSY human neuroblastoma cell strain; assay: Alleviation of radiation-induced neuronal cell death (CCK-8); type: cell-based; details: ACT001 1.25-10 μM, 0-10 Gy, radiation 1 h after dosing, 48 h, FIG. 6
Protocol: The culture medium for SYSY cells was DMEM, and the cells were cultured in a cell incubator at 37° C. with 5% CO2.
as §7, with “SYSY” for “U118-MG”
as §5, §6

## CC1=C2CC[C@@](C)(O)[C@@H]2[C@H]2OC(=O)[C@@H](CN(C)C)[C@@H]2CC1.O=C(O)/C=C/C(=O)O [ACT001, (3R,3aS,9R,9aS,9bS)-3-((dimethylamino)methyl)-9-hydroxy-6,9-dimethyl-3,3a,4,5,7,8,9,9a-octahydroazuleno[4,5]furan-2(9bH)-one fumarate]
BALB/c mice [1]
  Apoptosis of neurons in the cerebral cortex compared with radiation-only groups: significantly reduce the apoptosis of neurons
[2]
  Protection effect on H226 tumor cells against radiation: no protection effect on H226 tumor cells
[3]; FIG. 1
  Effect on the inhibition by radiation of the proliferation of U118-MG cells: significantly enhance the inhibition effect of the radiation group
[3]; 0 Gy
  inhibition at 20 µM: 19.2%
[3]; 6 Gy
  inhibition at 20 µM: 22.8%
[3]; 10 Gy
  inhibition at 20 µM: 33.8%
[3]; 20 Gy
  inhibition at 20 µM: 36.1%
[3]; 50 Gy
  inhibition at 20 µM: 75.6%
[4]
  Effect on radiotherapy-induced injuries of BEAS2B cells: significantly reduce radiotherapy-induced injuries of BEAS2B cells
BALB/c mice [5]; ACT001 200 mg/kg + radiotherapy 8 Gy group
  Day on which animal death occurred: 15 days
BALB/c mice [5]; ACT001 200 mg/kg + radiotherapy 8 Gy, P<0.01
  Survival time compared with the radiotherapy control-8 Gy group: significantly prolonged
BALB/c mice [5]; ACT001 200 mg/kg intragastrically, 17 consecutive days before radiotherapy
  State and body weight of animals during pre-administration: in good state with stable body weight
BALB/c mice [5]; ACT001 200 mg/kg p.o. × 49 + systemic radiotherapy 8 Gy × 1, BALB/c mice
  Survival rate (%): 70%
BALB/c mice [5]; ACT001 200 mg/kg p.o. × 49 + systemic radiotherapy 8 Gy × 1, x ± s
  Body weight (g) End: 18.5 ± 2.9 g
BALB/c mice [5]; ACT001 200 mg/kg p.o. × 49, no radiotherapy, BALB/c mice
  Survival rate (%): 100%
BALB/c mice [5]; ACT001 200 mg/kg p.o. × 49, no radiotherapy, x ± s
  Body weight (g) End: 19.1 ± 3.0 g
[6]
  Effect on injuries of SYSY cells caused by radiation: significantly reduce the injuries of SYSY cells caused by radiation
